Measurements from patent US20080187927A1, “USING HUG1 PROMOTER AND A REPORTER GENE TO DETECT GENOTOXICITY AND GENOPROTECTION” (priority 2006, published 2008).
Structures can show the parent of a compound that is named as a salt. Where two headings read alike, the source gives them in different places.

Key:
[1] = tested on: SPY1101 (HUG1P-GFP)
Description: Yeast having a HUG1-GFP promoter/reporter construct (called SPY1101; genotype is W303 MA:Ta/a ura3-52/ura3-52 his3::hisG/his3::hisG leu2::hisG/leu2::hisG HUG1P-GFP::HIS3/HUG1P-HUG1) were derived from S. cerevisiae strain SPY810 (wild-type yeast; genotype is W303 MATa/a ura3-52/ura3-52 his3::hisG/his3::hisG/leu2::hisG/leu2::hisG) using a PCR-based gene deletion method. Longtine M, et al., “Additional modules for versatile and economical PCR-based gene deletion and modification in Saccharomyces cerevisiae,” Yeast 14:953-961 (1998), incorporated herein by reference as if set forth in its entirety. Briefly, plasmid pFA6a-GFP(S65T)-His3MX6 (kindly provided by John Pringle at The University of North Carolina at Chapel Hill (Chapel Hill, N.C.); see also, Longtine et al., supra.), which contains GFP-S65T, was isolated from Escherichia coli DHα with a QIAprep Spin Miniprep Kit (Qiagen; Santa Clarita, Calif.).
Yeast from Example 1 (SPY1101) were exposed to the genotoxins shown in Table 2, which included alkylating agents, oxidizing agents, ribonucleotide reductase inhibitors, UV mimetic agents, glycopeptide antibiotics, quinoline-based alkaloids and ionizing radiation. Each genotoxin was added directly to a culture of SPY1101. Fresh phleomycin (Sigma) was aliquoted in water at a concentration of 20 mg/ml and stored at −20° C. until culture exposure. Likewise, CPT (Sigma) was aliquoted in dimethylsulfoxide (DMSO) at a concentration of 10 mg/ml and stored at −20° C. until culture exposure. All samples exposed to CPT were adjusted with DMSO, such that the final concentration of DMSO in the culture was 1% (v/v), regardless of CPT dose. γ-ray exposure was done using a Cs^137 source (exposure was 7 Gy/min and ended when the desired dose was reached). For all genotoxins (except γ-ray), exposure was continuous.
All DNA damage experiments included a minimum of three independent trials. SPY1101 were grown in rich medium (see, Sherman, supra) at 30° C. and with gentle shaking at 250 rpm to mid log-phase and then diluted to an OD600 of 0.1. After dilution, the culture was divided into 10 ml aliquots for exposure to one of the DNA damaging agents listed above. One culture aliquot was treated as a control and received no genotoxin, while the other aliquots each received one of seven different doses of the genotoxin, as listed in Table 2. In addition, SPY810 (wild-type control) were similarly treated. All cultures were then returned to 30° C. for incubation.
One hour after exposure, 1 ml of each culture was removed, and the OD600 was recorded to monitor culture growth. The cells were washed in PBS, re-suspended in fresh PBS to an OD600 of 0.2 and then placed in the dark on ice until flow cytometry analysis. This process was repeated every hour until eight hours had passed since the initial genotoxin exposure. The process was also repeated at twenty-four hours after initial genotoxin exposure.
Flow cytometry analysis was conducted as follows. For each replicate, at least 10,000 cells were analyzed for fluorescence using a flow cytometer (Becton Dickinson; Franklin Lakes, N.J.), and GFP induction analysis was performed with CellQuest™ and Flow-Jo software. Surviving cells were defined as whole cells (measured with light scattering) with intact cellular membranes (measured by exclusion of propidium iodide). All surviving cells were gated and used to measure GFP expression of the population. GFP expression histograms were prepared with WinMDI (available on the world wide web), using a live/dead gate based on propidium iodide exclusion. Histograms were created using a smoothing setting of 5.
SPY1101 were also exposed to general cell stress. All general cell stress experiments consisted of a minimum of three independent trials. SPY1101 were grown in rich medium at 30° C. and with gentle shaking at 250 rpm to mid log-phase and then diluted to an OD600 of 0.1. After dilution, the culture was divided into aliquots.

[2] = tested on: SPY810 (wild-type yeast); assay: Fluorescence of wild-type control yeast SPY810 after genotoxin exposure; type: cell-based, S. cerevisiae; details: 0.01% MMS for six hours
Method: In addition, SPY810 (wild-type control) were similarly treated.
Flow cytometry analysis was conducted as follows. […] Histograms were created using a smoothing setting of 5.

[3] = tested on: SPY1105 (mag1Δ/mre11bΔ, HUG1P-GFP)
Method: (§1) Briefly, two hours after exposure, 1 ml of each culture-was removed and the OD600 was recorded to monitor cell proliferation. The cells were then washed in PBS and re-suspended to an OD600 of 0.2, and placed in the dark on ice until flow cytometry analysis. This process was repeated after 4, 6 and 8 hours after exposure.

[4] = tested on: SPY1102 (mag1Δ); assay: Viability of SPY1102 after genotoxin exposure; type: cell-based, S. cerevisiae; details: after four hours of exposure
[5] = tested on: SPY1103 (mre11aΔ); assay: Viability of SPY1103 after genotoxin exposure; type: cell-based, S. cerevisiae; details: exposed to MMS
[6] = tested on: SPY1102 (mag1Δ, HUG1P-GFP)
Method: as §1

[7] = tested on: SPY1103 (mre11aΔ, HUG1P-GFP)
Method: Yeast having a MRE11 deletion (SPY1103; also called mre11aΔ) were created from SPY1101.
as §1

Cl [HCl]
maximum induction of GFP fluorescence ([1]; 1, 5, 10 or 15% (v/v) 1 N HCl, positive threshold >2 fold): 1.5 fold

COS(C)(=O)=O [MMS, methyl methanesulfonate]
fluorescence of wild type control [2]: did not fluoresce | relative fluorescence induction ([3]; 0.005% MMS (peak)): 49 fold | Relative Fluorescence ([3]; dose 0.0001%, exposure 4 h): 2.2 | viability compared to SPY810 or SPY1101 [4]: less viable | viability compared to SPY1101 [5]: no difference in viability | Relative Fluorescence ([6]; 0.0005% MMS): 34 | peak fluorescence ([6]; 0.005% MMS): 154 fold | Relative Fluorescence ([6]; dose 0.0001%, exposure 4 h): 3.0 | Relative Fluorescence ([1]; 0.0005% MMS (dose-response)): 4 | increase of fluorescence compared to untreated cells ([1]; 0.0005% MMS, after 6 hours): 2.4 fold | fluorescence upregulation ([1]; 0.005% MMS): 97 fold | optimum (peak) fluorescence ([1]; 0.01% MMS): 1.48 fold | increase of fluorescence (minimum induction time) ([1]; 0.01% MMS, after 75 minutes): 3 fold | Relative Fluorescence ([1]; dose 0.0005%, exposure 6 h): 2.4 | fluorescence induction at peak fluorescence ([7]; MMS, at its peak fluorescence): 49 fold | Relative Fluorescence ([7]; dose 0.0005%, exposure 6 h): 2.7

C=O [formaldehyde]
dose-dependent GFP expression ([1]; doses of Table 2, up to 24 h): No dose-dependent induction of GFP expression
